Assay results from paper PMC11299587 (ACS infectious diseases, 2024).
Read-outs that look alike come from different tables or passages of the source.

Key:
[1] = target: T1, HscPheRS (human cytosolic phenylalanyl-tRNA synthetase, alpha subunit) (Homo sapiens, UniProt Q9Y285); experiment: malachite green aminoacylation assay with purified enzyme; format: biochemical; conditions: read-out: BRD2108
T1 sequence (Q9Y285 2-508): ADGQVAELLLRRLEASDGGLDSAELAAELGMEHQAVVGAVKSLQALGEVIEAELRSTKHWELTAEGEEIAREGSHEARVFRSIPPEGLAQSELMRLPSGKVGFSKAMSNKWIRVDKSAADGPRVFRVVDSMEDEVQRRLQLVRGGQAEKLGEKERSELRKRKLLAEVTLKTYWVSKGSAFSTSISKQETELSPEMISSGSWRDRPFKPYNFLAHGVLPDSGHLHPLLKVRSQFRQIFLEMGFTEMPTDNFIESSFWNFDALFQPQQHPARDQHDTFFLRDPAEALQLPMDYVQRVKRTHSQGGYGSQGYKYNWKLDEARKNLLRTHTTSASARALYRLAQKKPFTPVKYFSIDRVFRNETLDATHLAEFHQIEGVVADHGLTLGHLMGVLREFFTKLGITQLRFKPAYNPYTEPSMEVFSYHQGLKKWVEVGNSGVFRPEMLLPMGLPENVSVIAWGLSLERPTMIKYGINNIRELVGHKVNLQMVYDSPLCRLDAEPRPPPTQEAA
T1 sequence (Q9NSD9 1-589 partner): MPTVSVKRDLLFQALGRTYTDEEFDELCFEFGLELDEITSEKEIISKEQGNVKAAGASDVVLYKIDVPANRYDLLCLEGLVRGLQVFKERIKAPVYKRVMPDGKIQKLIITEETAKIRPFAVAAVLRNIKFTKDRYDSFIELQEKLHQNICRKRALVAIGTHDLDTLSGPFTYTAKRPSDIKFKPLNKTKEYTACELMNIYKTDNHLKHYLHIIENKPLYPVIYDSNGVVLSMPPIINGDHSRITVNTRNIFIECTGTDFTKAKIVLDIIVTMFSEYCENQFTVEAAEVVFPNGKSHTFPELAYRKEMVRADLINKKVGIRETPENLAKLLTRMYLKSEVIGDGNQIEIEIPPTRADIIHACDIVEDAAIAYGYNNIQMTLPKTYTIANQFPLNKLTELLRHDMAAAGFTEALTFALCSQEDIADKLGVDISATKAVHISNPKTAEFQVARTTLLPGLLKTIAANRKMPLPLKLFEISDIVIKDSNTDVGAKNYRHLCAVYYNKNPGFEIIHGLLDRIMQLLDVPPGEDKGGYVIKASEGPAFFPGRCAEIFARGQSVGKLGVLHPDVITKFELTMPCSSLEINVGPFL

[2] = target: T2, TgcPheRS (Toxoplasma gondii cytosolic phenylalanyl-tRNA synthetase, alpha subunit) (Toxoplasma gondii, UniProt A0A125YPN6+S8EZ50); experiment: as above; format: biochemical
T2 sequence (A0A125YPN6 1-525): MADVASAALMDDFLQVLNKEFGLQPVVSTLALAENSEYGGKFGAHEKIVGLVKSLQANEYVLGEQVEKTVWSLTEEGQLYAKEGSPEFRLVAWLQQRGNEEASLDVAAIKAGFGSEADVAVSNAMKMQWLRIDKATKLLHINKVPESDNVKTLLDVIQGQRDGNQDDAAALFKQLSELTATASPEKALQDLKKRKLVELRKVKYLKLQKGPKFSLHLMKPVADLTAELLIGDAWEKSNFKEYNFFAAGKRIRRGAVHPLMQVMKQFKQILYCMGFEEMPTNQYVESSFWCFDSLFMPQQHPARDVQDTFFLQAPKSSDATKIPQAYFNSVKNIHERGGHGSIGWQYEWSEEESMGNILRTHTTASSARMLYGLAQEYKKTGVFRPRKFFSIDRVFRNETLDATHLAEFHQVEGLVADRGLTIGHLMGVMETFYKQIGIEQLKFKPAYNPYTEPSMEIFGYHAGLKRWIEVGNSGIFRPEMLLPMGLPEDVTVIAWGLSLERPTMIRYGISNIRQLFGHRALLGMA
T2 sequence (S8EZ50 1-675): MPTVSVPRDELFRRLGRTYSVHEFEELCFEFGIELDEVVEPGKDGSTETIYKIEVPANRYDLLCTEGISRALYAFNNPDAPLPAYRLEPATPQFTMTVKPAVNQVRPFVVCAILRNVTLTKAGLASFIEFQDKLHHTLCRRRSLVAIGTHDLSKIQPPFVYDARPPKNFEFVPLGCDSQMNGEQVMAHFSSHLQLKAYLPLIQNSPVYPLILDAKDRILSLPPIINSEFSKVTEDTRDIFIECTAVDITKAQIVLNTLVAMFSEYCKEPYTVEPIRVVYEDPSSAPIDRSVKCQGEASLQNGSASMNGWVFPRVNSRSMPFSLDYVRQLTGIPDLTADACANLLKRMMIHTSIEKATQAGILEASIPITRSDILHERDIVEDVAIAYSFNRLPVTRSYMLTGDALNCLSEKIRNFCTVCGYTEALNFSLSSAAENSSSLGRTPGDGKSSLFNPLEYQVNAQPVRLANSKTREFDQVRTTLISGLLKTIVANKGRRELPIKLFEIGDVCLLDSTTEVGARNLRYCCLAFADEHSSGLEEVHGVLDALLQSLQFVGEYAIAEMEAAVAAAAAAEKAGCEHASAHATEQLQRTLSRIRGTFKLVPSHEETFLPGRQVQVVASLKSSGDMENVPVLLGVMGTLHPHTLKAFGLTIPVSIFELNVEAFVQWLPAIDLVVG

[3] = target: T1, HscPheRS (human cytosolic phenylalanyl-tRNA synthetase, alpha subunit); experiment: as above; format: biochemical
[4] = target: T2, TgcPheRS (Toxoplasma gondii cytosolic phenylalanyl-tRNA synthetase, alpha subunit); experiment: as above; format: biochemical; remark: listed apart in the source
[5] = target: T1, HscPheRS (human cytosolic phenylalanyl-tRNA synthetase, alpha subunit); experiment: as above; format: biochemical; conditions: read-out: BRD7929
[6] = target: T2, TgcPheRS (Toxoplasma gondii cytosolic phenylalanyl-tRNA synthetase, alpha subunit); experiment: thermal shift assay; format: binding

Compound: BRD2108
- IC50 [1]: 15.6 µM
- IC50 [2]: 0.42 µM

Compound: COc1ccc(NC(=O)N2CCCN3CC[C@H](c4ccc(C#CC5=CCCCC5)cc4)[C@@H]3C2)cc1 [mCMY416]
- IC50 [3]: 3.58 µM
- IC50 [4]: 0.24 µM

Compound: COc1ccc(NC(=O)N2CCCCN3[C@H](CN(C)C)[C@H](c4ccc(C#Cc5ccccc5)cc4)[C@@H]3C2)cc1 [BRD7929]
- IC50 [5]: 18 µM
- BRD7929 [6]: 11.6 °C
